The source of these data is patent publication US9216968B2, “Heterocyclic derivative and pharmaceutical drug” (NIPPON SHINYAKU CO., LTD., priority 2011, dated 2015).

Where a name gives a salt, the structure may show the parent alone. A value given as a limit tells only on which side of the number the result lay.

The target of experiment [1] is human mPGES-1 (Homo sapiens (Human), UniProt O14684). Nature of the experiment: mPGES-1 inhibiting activity (microsome fractions, PGE2 by HTRF). Format: biochemical. As to conditions: microsomes from CHO-K1 cells transfected with human mPGES-1; PGH2 1 μM, 4° C., 60 seconds; read-out: mPGES-1 Inhibition IC50. The procedure, abridged:
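PGE2 formation read by HTRF after 60 s at 4 °C with 1 μM PGH2 substrate, following 20 min compound preincubation (1% DMSO) with human mPGES-1 microsomes from transfected CHO-K1 cells. Buffer: potassium phosphate, reduced glutathione, pH 7.4; IC50 from activity relative to enzyme-free blank.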
A general note: In TR-FRET formats the signal depends on donor and acceptor labels being close together.

Experiment [2] deals with A549 cells. Description: Inhibition of PGE2 production in A549 cell (IL-1β stimulated). Format: cell-based, human. As to conditions: IL-1β 5 ng/well, PGE2 in culture medium. The procedure, abridged:
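After IL-1β (5 ng/well) stimulation for 24 h at 37 °C, following a 60-min compound pretreatment in RPMI with 3% FBS, medium PGE2 (HTRF) and PGF2α (EIA) from human A549 cells were quantified. 100% activity set as IL-1β-induced minus basal production; IC50 calculated.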

A word on the IC50: it is the concentration that gives 50% inhibition.

Chain of human mPGES-1 (O14684 whole entry): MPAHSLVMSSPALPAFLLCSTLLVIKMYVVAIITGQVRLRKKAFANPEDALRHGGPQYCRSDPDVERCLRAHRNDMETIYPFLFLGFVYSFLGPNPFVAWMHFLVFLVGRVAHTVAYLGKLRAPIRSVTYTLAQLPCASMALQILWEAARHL

`COCc1nc2c(C(=O)Nc3ccc(C)cc3)cc(NC(=O)c3ccccc3C(F)(F)F)cc2[nH]1` [Example 23, 2-(Methoxymethyl)-N-(4-methylphenyl)-6-({[2-(trifluoromethyl)phenyl]carbonyl}amino)-1H-benzimidazole-4-carboxamide hydrochloride]: the IC50 in experiment [1] was 7.2 nM; in experiment [2] (Homo sapiens, A549, 24 h), 116 nM.

As to `COCc1nc2c(C(=O)Nc3cccc(Cl)c3C)cc(NC(=O)c3c(Cl)cccc3C(F)(F)F)cc2[nH]1` [Example 113, N-(3-Chloro-2-methylphenyl)-6-({[2-chloro-6-(trifluoromethyl)phenyl]carbonyl}amino)-2-(methoxymethyl)-1H-benzimidazole-4-carboxamide hydrochloride], the half-maximal inhibitory concentration (IC50) was no more than 0.1 nM in experiment [1] and 1.2 nM in experiment [2] (Homo sapiens, A549, 24 h).

As for `COCCOCc1nc2c(C(=O)Nc3cccc(Cl)c3C)cc(NC(=O)c3ccccc3C(F)(F)F)cc2[nH]1` [Example 74, N-(3-Chloro-2-methylphenyl)-2-[(2-methoxyethoxy)methyl]-6-({[2-(trifluoromethyl)phenyl]carbonyl}amino)-1H-benzimidazole-4-carboxamide hydrochloride], the IC50 in experiment [1] stood at 71.3 nM; in experiment [2] (Homo sapiens, A549, 24 h), 10.4 nM.

Regarding `COCc1nc2c(C(=O)Nc3cccc4ccccc34)cc(NC(=O)c3ccccc3C(F)(F)F)cc2[nH]1` [Example 219, 2-(Methoxymethyl)-N-(naphthalen-1-yl)-6-({[2-(trifluoromethyl)phenyl]carbonyl}amino)-1H-benzimidazole-4-carboxamide hydrochloride], the IC50 in experiment [1] came out at 2 nM; in experiment [2] (Homo sapiens, A549, 24 h), 26 nM.

Regarding `O=C(Nc1cc(C(=O)NCc2ccccc2C(F)(F)F)c2nc(C3CCCO3)[nH]c2c1)c1ccccc1C(F)(F)F` (stereo in doubt) [Example 67, 2-[(2S)-Tetrahydrofuran-2-yl]-N-[2-(trifluoromethyl)benzyl]-6-({[2-(trifluoromethyl)phenyl]carbonyl}amino)-1H-benzimidazole-4-carboxamide hydrochloride], the IC50 in experiment [1] was found to be 11 nM; in experiment [2] (24 hours, hydrochloride), 56.4 nM.

For `Cc1c(Cl)cccc1NC(=O)c1cc(NC(=O)c2c(F)cccc2Br)cc2[nH]c(N(C)C)nc12` [Example 186, 6-{[(2-Bromo-6-fluorophenyl)carbonyl]amino}-N-(3-chloro-2-methylphenyl)-2-(dimethylamino)-1H-benzimidazole-4-carboxamide hydrochloride], the IC50 in experiment [1] came out at 6.1 nM; in experiment [2] (Homo sapiens, A549, 24 h), 13.9 nM.

On to `CCc1nc2c(C(=O)Nc3cccc(Cl)c3C)cc(NC(=O)c3ccccc3C(F)(F)F)cc2[nH]1` [Example 17, N-(3-Chloro-2-methylphenyl)-2-ethyl-6-({[2-(trifluoromethyl)phenyl]carbonyl}amino)-1H-benzimidazole-4-carboxamide], for which the IC50 in experiment [1] turned out to be 9.8 nM; in experiment [2] (Homo sapiens, A549, 24 h), 21.6 nM.

Regarding `COCc1nc2c(C(=O)Nc3cccc(Cl)c3C)cc(NC(=O)c3cc(OCCOC(C)C)ccc3Cl)cc2[nH]1` [Example 114, N-(3-Chloro-2-methylphenyl)-6-[({2-chloro-5-[2-(propan-2-yloxy)ethoxy]phenyl}carbonyl)amino]-2-(methoxymethyl)-1H-benzimidazole-4-carboxamide hydrochloride], the IC50 in experiment [1] was 3.5 nM; in experiment [2] (Homo sapiens, A549, 24 h) it was 8.8 nM.

For `COCc1nc2c(C(=O)NCC3CCCCC3)cc(NC(=O)c3ccccc3C(F)(F)F)cc2[nH]1` [Example 218, N-(Cyclohexylmethyl)-2-(methoxymethyl)-6-({[2-(trifluoromethyl)phenyl]carbonyl}amino)-1H-benzimidazole-4-carboxamide hydrochloride], the 50% inhibitory concentration (IC50) in experiment [1] is 5.3 nM; in experiment [2] (Homo sapiens, A549, 24 h), 42.8 nM.

`COCc1nc2c(C(=O)Nc3cccc(Cl)c3C)cc(NC(=O)c3ccccc3Cl)cc2[nH]1` [Example 95, N-(3-Chloro-2-methylphenyl)-6-{[(2-chlorophenyl)carbonyl]amino}-2-(methoxymethyl)-1H-benzimidazole-4-carboxamide hydrochloride]: the IC50 in experiment [1] came out at 5.1 nM; in experiment [2] (Homo sapiens, A549, 24 h), 105 nM.

Consider `Cc1c(Cl)cccc1NC(=O)c1cc(NC(=O)c2c(F)cccc2Cl)cc2[nH]c(NCCOC(C)(C)C)nc12` [Example 195, 2-[(2-tert-Butoxyethyl)amino]-6-{[(2-chloro-6-fluorophenyl)carbonyl]amino}-N-(3-chloro-2-methylphenyl)-1H-benzimidazole-4-carboxamide hydrochloride], for which the IC50 in experiment [1] was 2.3 nM; in experiment [2] (Homo sapiens, A549, 24 h), 17.2 nM.

As for `Cc1c(Cl)cccc1NC(=O)c1cc(NC(=O)c2ccccc2C(F)(F)F)cc2[nH]c(CC(C)C)nc12` [Example 59, N-(3-Chloro-2-methylphenyl)-2-(2-methylpropyl)-6-({[2-(trifluoromethyl)phenyl]carbonyl}amino)-1H-benzimidazole-4-carboxamide hydrochloride], the IC50 came out at 2.1 nM in experiment [1] and 12.9 nM in experiment [2] (Homo sapiens, A549, 24 h).

`Cc1c(Cl)cccc1NC(=O)c1cc(NC(=O)c2c(F)cccc2Cl)cc2[nH]c(NC[C@@H]3CCCO3)nc12` [Example 198, 6-{[(2-Chloro-6-fluorophenyl)-carbonyl]amino}-N-(3-chloro-2-methylphenyl)-2-{[(2S)-tetrahydrofuran-2-ylmethyl]amino}-1H-benzimidazole-4-carboxamide hydrochloride]: the IC50 in experiment [1] was found to be 6 nM; in experiment [2] (Homo sapiens, A549, 24 h), 34.1 nM.

In the case of `Cc1c(Cl)cccc1NC(=O)c1cc(NC(=O)c2ccccc2C(F)(F)F)cc2[nH]c(N3CCCCC3)nc12` [Example 142, N-(3-Chloro-2-methylphenyl)-2-(piperidin-1-yl)-6-({[2-(trifluoromethyl)phenyl]carbonyl}amino)-1H-benzimidazole-4-carboxamide hydrochloride], the IC50 in experiment [1] was 0.4 nM; in experiment [2] (Homo sapiens, A549, 24 h), 82.7 nM.

For the compound `Cc1ccc(NC(=O)c2cc(NC(=O)c3ccccc3C(F)(F)F)cc3[nH]c(C(C)(C)C)nc23)cc1Cl` [Example 86, 2-tert-Butyl-N-(3-chloro-4-methylphenyl)-6-({[2-(trifluoromethyl)phenyl]carbonyl}amino)-1H-benzimidazole-4-carboxamide hydrochloride], the IC50 in experiment [1] is 1 nM; in experiment [2] (Homo sapiens, A549, 24 h), 5.1 nM.

With `Cc1c(Cl)cccc1NC(=O)c1cc(NC(=O)c2cc(Cl)ccc2Cl)cc2[nH]c(C3CCCC3)nc12` [Example 125, N-(3-Chloro-2-methylphenyl)-2-cyclopentyl-6-{[(2,5-dichlorophenyl)carbonyl]amino}-1H-benzimidazole-4-carboxamide hydrochloride], the IC50 was found to be 25.6 nM in experiment [1] and 56.9 nM in experiment [2] (Homo sapiens, A549, 24 h).

With `Cc1ccc(NC(=O)c2cc(NC(=O)c3cc(Cl)ccc3Cl)cc3[nH]c(N(C)C)nc23)cc1Cl` [Example 207, N-(3-Chloro-4-methylphenyl)-6-{[(2,5-dichlorophenyl)carbonyl]amino}-2-(dimethylamino)-1H-benzimidazole-4-carboxamide hydrochloride], the IC50 is 3.6 nM in experiment [1] and 6.2 nM in experiment [2] (Homo sapiens, A549, 24 h).

Consider `COC1CN(c2nc3c(C(=O)Nc4cccc(Cl)c4C)cc(NC(=O)c4ccccc4C(F)(F)F)cc3[nH]2)C1` [Example 166, N-(3-Chloro-2-methylphenyl)-2-(3-methoxyazetidin-1-yl)-6-({[2-(trifluoromethyl)phenyl]carbonyl}amino)-1H-benzimidazole-4-carboxamide hydrochloride], for which the IC50 was 3.2 nM in experiment [1] and 29 nM in experiment [2] (Homo sapiens, A549, 24 h).

Turning to `COCc1nc2c(C(=O)Nc3cccc(Cl)c3C)cc(NC(=O)c3ccccc3Br)cc2[nH]1` [Example 97, 6-{[(2-Bromophenyl)carbonyl]amino}-N-(3-chloro-2-methylphenyl)-2-(methoxymethyl)-1H-benzimidazole-4-carboxamide hydrochloride], the half-maximal inhibitory concentration (IC50) in experiment [1] was 6.1 nM; in experiment [2] (Homo sapiens, A549, 24 h) it was 43.1 nM.

As for `COCc1nc2c(C(=O)Nc3cccc4cccnc34)cc(NC(=O)c3ccccc3C(F)(F)F)cc2[nH]1` [Example 230, 2-(Methoxymethyl)-N-(quinolin-8-yl)-6-({[2-(trifluoromethyl)phenyl]carbonyl}amino)-1H-benzimidazole-4-carboxamide hydrochloride], the IC50 in experiment [1] was determined as 1.9 nM; in experiment [2] (Homo sapiens, A549, 24 h), 100 nM.

For `COCc1nc2c(C(=O)Nc3cccc(Cl)c3C)cc(NC(=O)c3cccc(F)c3Cl)cc2[nH]1` [Example 100, 6-{[(2-Chloro-3-fluorophenyl)carbonyl]amino}-N-(3-chloro-2-methylphenyl)-2-(methoxymethyl)-1H-benzimidazole-4-carboxamide hydrochloride], the IC50 in experiment [1] was 33.3 nM; in experiment [2] (Homo sapiens, A549, 24 h), 122 nM.

On to `COCCc1nc2c(C(=O)Nc3ccc(C)c(Cl)c3)cc(NC(=O)c3cc(Cl)ccc3Cl)cc2[nH]1` [Example 213, N-(3-Chloro-4-methylphenyl)-6-{[(2,5-dichlorophenyl)carbonyl]amino}-2-(2-methoxyethyl)-1H-benzimidazole-4-carboxamide hydrochloride], for which the IC50 is 0.9 nM in experiment [1] and 142 nM in experiment [2] (Homo sapiens, A549, 24 h).

Regarding `COCC(C)(C)CNc1nc2c(C(=O)Nc3cccc(Cl)c3C)cc(NC(=O)c3c(F)cccc3Cl)cc2[nH]1` [Example 196, 6-{[(2-Chloro-6-fluorophenyl)carbonyl]amino}-N-(3-chloro-2-methylphenyl)-2-[(3-methoxy-2,2-dimethylpropyl)amino]-1H-benzimidazole-4-carboxamide hydrochloride], the concentration for half-maximal inhibition (IC50) in experiment [1] came out at 6.5 nM; in experiment [2] (Homo sapiens, A549, 24 h), 35.9 nM.
